Test results: patent US8865750B2, “Small molecule inhibitors of RGS proteins” (The Regents of The University of Michigan, priority 2011, dated 2014)
“Also recorded” adds a separate entry of the source.

Legend:
RGS4 [1] = experiment: FCPIA: Gαo binding to RGS4
Source text: (§1) FCPIA Dose Response and Reversibility Experiments:

RGS7 = RGS7 (Homo sapiens (Human), UniProt P49802); experiment: FCPIA: Gαo binding to RGS7; conditions: Table 7
Experimental: as §1
FCPIA was performed as previously described using chemically biotinylated RGS proteins and AlexaFluor-532 labeled Gα0. (Roman et al., J Biomol Screen, 2009; Blazer, L. L., et al., Mol Pharmacol).
RGS/Gα binding studies: The binding of biotinylated RGS proteins to fluorescently labeled Gαo was measured by Flow Cytometry Protein Interaction Assay (FCPIA) method previously described (Roman et al., (2009) J Biomol Screen.; Blazer et al., (2010) Curr Protoc Cytom Chapter 13, Unit 13 11 11-15; Roman et al., (2007) Mol Pharmacol 71, 169-175) as were the measures of compound reversibility.

RGS4 [2] = biological target: T1, RGS4 (Homo sapiens (Human), UniProt P49798); experiment: Carbachol Ca2+ mobilization, M3 HEK-293 cells with doxycycline-induced RGS4; format: cell-based
Experimental: Calcium Mobilization Experiments:
A stable cell line was developed based upon the HEK-293 Flp-In TREx cell line (Invitrogen, Carlsbad, Calif.) that stably express the muscarinic M3 receptor and have human RGS4 expression under doxycycline control. Cells were maintained in DMEM supplemented with 10% fetal bovine serum and Penicillin (100 units/ml)-Streptomycin (100 μg/ml) under 5% CO2 at 37° C. For experiments, cells were split into 96-well black, clear bottom, poly-D-lysine coated microtiter plates (Nunc, Cat. #152037) at a density of 20,000 cells/well in DMEM containing 10% fetal bovine serum and Penicillin (100 units/ml), Streptomycin (100 μg/ml). […] Compounds and/or carbachol were added to the wells and the fluorescence intensity was measured using a FlexStation (Molecular Devices, Sunnyvale, Calif.) plate reader. Data analysis was performed by calculating the area under the curve or maximal fluorescence intensity from a 120 second kinetic measurement.
Calcium signaling transients: A stable cell line was developed based upon the HEK-293 Flp-In TREx cell line (Invitrogen, Carlsbad, Calif.) that stably express the muscarinic M3 receptor and have human RGS4 expression under doxycycline control. […] Compounds and/or carbachol were added to the wells and the fluorescence intensity was measured using a FlexStation (Molecular Devices, Sunnyvale, Calif.) plate reader. […]
Target sequence in this assay (P49798 whole entry): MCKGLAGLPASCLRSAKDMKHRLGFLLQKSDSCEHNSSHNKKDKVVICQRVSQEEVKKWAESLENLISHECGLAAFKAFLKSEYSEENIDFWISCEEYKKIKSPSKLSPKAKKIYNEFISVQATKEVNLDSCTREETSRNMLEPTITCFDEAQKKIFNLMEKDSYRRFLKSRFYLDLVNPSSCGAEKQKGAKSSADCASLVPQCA

RGS4 [3] = biological target: T1, RGS4; experiment: Steady-state GAP assay (malachite green); format: biochemical
Experimental: Steady-state GAP Assay: Steady-state hydrolysis of unlabled GTP was measured using malachite green in a receptor-independent assay utilizing a mutant Gαi1 (R178M, A326S) (Zielinski et al., (2009) J Biomol Screen 14, 1195-1206). These mutations facilitate the release of GDP from the enzyme making the GTP hydrolysis step rate-limiting (Lielinski et al., supra). […] The reaction is allowed to proceed for 2 hours at room temperature and then quenched with an H2SO4/malachite green dye solution. Immediately after addition of malachite green, sodium citrate was added as a colorimetric stablizer. Released inorganic phosphate was measured as an increase in absorbance (Abs630) from the complex of phosphate with malachite green (Chang, et al., 2008). Background control samples lacking Gα or RGS were used to determine the rate of non-enzymatic GTP hydrolysis.
Target sequence in this assay (P49798 whole entry, species assumed): as the sequence (P49798 whole entry) above

[4] = Heart rate and blood pressure in freely-moving rats; format: in vivo
Source text: The muscarinic agonist carbachol can induce a transient bradycardic effect by activating M2 receptors in the SAN.

[5] = tested on: muscarinic class of GPCRs; experiment: NIMH Psychoactive Drug Screening Program receptor panel
Experimental: (§2) Furthermore, the compound was tested against a panel of receptors via collaboration with the NIMH Psycoactive Drug Screening Program.

αAR = experiment: as above
Experimental: as §2

Chain of RGS7 (P49802 whole entry, species assumed): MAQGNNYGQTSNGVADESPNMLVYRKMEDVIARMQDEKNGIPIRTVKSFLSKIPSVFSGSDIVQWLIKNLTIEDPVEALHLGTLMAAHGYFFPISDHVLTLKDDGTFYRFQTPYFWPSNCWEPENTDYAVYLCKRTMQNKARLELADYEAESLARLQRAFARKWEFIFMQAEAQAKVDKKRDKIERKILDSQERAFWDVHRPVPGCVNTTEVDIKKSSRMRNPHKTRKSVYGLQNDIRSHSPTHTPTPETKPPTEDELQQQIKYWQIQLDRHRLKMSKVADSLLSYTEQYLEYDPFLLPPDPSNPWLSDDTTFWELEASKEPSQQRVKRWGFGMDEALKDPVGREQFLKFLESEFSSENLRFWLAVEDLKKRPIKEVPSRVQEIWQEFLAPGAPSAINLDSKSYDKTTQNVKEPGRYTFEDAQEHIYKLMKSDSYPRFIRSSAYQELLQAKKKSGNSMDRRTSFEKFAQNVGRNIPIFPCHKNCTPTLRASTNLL

Compound: CCCCn1c(=O)sn(CC)c1=O [CCG-203769, 2-ethyl-4-butyl-1,2,4-thiadiazolidine-3,5-dione]
- reversibility of RGS4 inhibition after washing (RGS4 [1]; 100 μM CCG-50014 or 500 nM CCG-203769, beads washed): irreversible
- IC50 (RGS4 [1]; FCPIA, listed as 11b, read-out: IC50 against RGS4): 0.0144 µM
- RGS4 Hill Slope (RGS4 [1]; Table 3): −0.71
- IC50 (RGS7): > 100 µM
- lowest concentration with enhanced Ca2+ signaling (RGS4 [2]): 1 µM
- reversal of RGS4-mediated suppression of carbachol Ca2+ response (RGS4 [2]; 15 min pretreatment, 1 and 3 μM): partially rescued; also recorded: partially reverse
- inhibition of RGS4 effect in steady-state GTPase assay (RGS4 [3]): potently inhibits the functional effect of RGS4
- blood pressure, carbachol plus compound ([4]; 10 mg/kg IV + carbachol 0.1 mg/kg IP): does not reach statistical significance
- bradycardic effect of carbachol after compound ([4]; 10 mg/kg IV before carbachol 0.1 mg/kg IP): significantly potentiated
- effect upon blood pressure, compound alone ([4]; 10 mg/kg, IV): no significant effect
- effect upon heart rate, compound alone ([4]; 10 mg/kg, IV): no significant effect
- effect upon muscarinic class of GPCRs [5]: little to no observable effect
- effect on αAR (αAR): able to inhibit
